Values after ≈ are worked out from the molar mass of the structure shown.
Tests used:
Assay type in all cases: functional
Staphylococcus aureus [1] = experiment: Antibacterial activity against methicillin-resistant Staphylococcus aureus TK7 by agar dilution method
Staphylococcus aureus [2] = experiment: Antibacterial activity against methicillin-sensitive Staphylococcus aureus Smith by agar dilution method
Streptococcus pneumoniae [3] = experiment: Antibacterial activity against penicillin-resistant Streptococcus pneumoniae PR44 by agar dilution method
Enterococcus faecium = experiment: Antibacterial activity against vancomycin-resistant Enterococcus faecium A2280 by agar dilution method
Streptococcus pneumoniae [4] = experiment: Antibacterial activity against penicillin-susceptible Streptococcus pneumoniae IID553 by agar dilution method
Haemophilus influenzae = experiment: Antibacterial activity against Haemophilus influenzae IID983 by agar dilution method

Structure (SMILES)	MIC (Staphylococcus aureus [1]) [µg/mL]	MIC (Staphylococcus aureus [2]) [µg/mL]	MIC (Streptococcus pneumoniae [3]) [µg/mL]	MIC (Enterococcus faecium) [µg/mL]	MIC (Streptococcus pneumoniae [4]) [µg/mL]	MIC (Haemophilus influenzae) [µg/mL]
N#C[C@]1(c2ccc(-c3ccc(N4C[C@H](Cn5ccnn5)OC4=O)cc3)cn2)[C@@H]2C[S+]([O-])C[C@@H]21 (stereo partly specified)	0.125 (≈ 0.271 µM)	0.125 (≈ 0.271 µM)	0.125 (≈ 0.271 µM)	0.25 (≈ 0.543 µM)	0.125 (≈ 0.271 µM)	8 (≈ 17.4 µM)
N#CN1C[C@@H]2[C@H](C1)[C@@]2(C#N)c1ccc(-c2ccc(N3C[C@H](Cn4ccnn4)OC3=O)cc2F)cn1	0.06 (≈ 0.128 µM)	0.06 (≈ 0.128 µM)	0.06 (≈ 0.128 µM)	0.06 (≈ 0.128 µM)	0.06 (≈ 0.128 µM)	2 (≈ 4.25 µM)
N#C[C@]1(c2ccc(-c3ccc(N4C[C@H](Cn5ccnn5)OC4=O)cc3F)cn2)[C@@H]2CSC[C@@H]21	0.06 (≈ 0.13 µM)	0.06 (≈ 0.13 µM)	0.06 (≈ 0.13 µM)	0.25 (≈ 0.541 µM)	0.125 (≈ 0.27 µM)	> 2
N#C[C@]1(c2ccc(-c3c(F)cc(N4C[C@H](Cn5ccnn5)OC4=O)cc3F)cn2)[C@@H]2COC[C@@H]21	0.06 (≈ 0.129 µM)	0.06 (≈ 0.129 µM)	0.125 (≈ 0.269 µM)	0.25 (≈ 0.538 µM)	0.25 (≈ 0.538 µM)	4 (≈ 8.61 µM)
N#C[C@]1(c2ccc(-c3ccc(N4C[C@H](Cn5ccnn5)OC4=O)cc3F)cn2)[C@@H]2CN(C(=O)CO)C[C@@H]21	0.06 (≈ 0.119 µM)	0.06 (≈ 0.119 µM)	0.06 (≈ 0.119 µM)	0.125 (≈ 0.248 µM)	0.06 (≈ 0.119 µM)	4 (≈ 7.94 µM)
N#C[C@]1(c2ccc(-c3ccc(N4C[C@H](COc5ccon5)OC4=O)cc3F)cn2)[C@@H]2CNC[C@@H]21	0.06 (≈ 0.13 µM)	0.06 (≈ 0.13 µM)	0.06 (≈ 0.13 µM)	0.125 (≈ 0.271 µM)	0.125 (≈ 0.271 µM)	4 (≈ 8.67 µM)
CC(=S)NC[C@H]1CN(c2ccc(-c3ccc([C@@]4(C#N)[C@@H]5CNC[C@@H]54)nc3)c(F)c2)C(=O)O1	0.03 (≈ 0.0664 µM)	0.06 (≈ 0.133 µM)	0.03 (≈ 0.0664 µM)	0.06 (≈ 0.133 µM)	0.06 (≈ 0.133 µM)	2 (≈ 4.43 µM)
COC(=O)NC[C@H]1CN(c2ccc(-c3ccc([C@@]4(C#N)[C@@H]5CNC[C@@H]54)nc3)c(F)c2)C(=O)O1	0.125 (≈ 0.277 µM)	0.125 (≈ 0.277 µM)	0.125 (≈ 0.277 µM)	0.125 (≈ 0.277 µM)	0.125 (≈ 0.277 µM)	4 (≈ 8.86 µM)
NC[C@]1(c2ccc(-c3ccc(N4C[C@H](Cn5ccnn5)OC4=O)cc3F)cn2)[C@@H]2CNC[C@@H]21	4 (≈ 8.9 µM)	4 (≈ 8.9 µM)	8 (≈ 17.8 µM)	16 (≈ 35.6 µM)	4 (≈ 8.9 µM)	128 (≈ 285 µM)
N#C[C@]1(c2ccc(-c3ccc(N4C[C@H](Cn5ccnn5)OC4=O)cc3)cn2)[C@@H]2COC[C@@H]21	0.06 (≈ 0.14 µM)	0.06 (≈ 0.14 µM)	0.125 (≈ 0.292 µM)	0.25 (≈ 0.583 µM)	0.125 (≈ 0.292 µM)	4 (≈ 9.34 µM)
CN1C[C@@H]2[C@H](C1)[C@@]2(C#N)c1ccc(-c2ccc(N3C[C@H](Cn4ccnn4)OC3=O)cc2F)cn1	0.06 (≈ 0.131 µM)	0.06 (≈ 0.131 µM)	0.06 (≈ 0.131 µM)	0.25 (≈ 0.544 µM)	0.06 (≈ 0.131 µM)	4 (≈ 8.71 µM)
N#C[C@]1(c2ccc(-c3ccc(N4C[C@H](Cn5ccnn5)OC4=O)cc3F)cn2)[C@@H]2C[S+]([O-])C[C@@H]21 (stereo partly specified)	0.06 (≈ 0.125 µM)	0.06 (≈ 0.125 µM)	0.06 (≈ 0.125 µM)	0.125 (≈ 0.261 µM)	0.06 (≈ 0.125 µM)	4 (≈ 8.36 µM)
N#C[C@]1(c2ccc(-c3ccc(N4C[C@H](Cn5ccnn5)OC4=O)cc3)cn2)[C@@H]2CSC[C@@H]21	0.06 (≈ 0.135 µM)	0.06 (≈ 0.135 µM)	0.06 (≈ 0.135 µM)	0.25 (≈ 0.562 µM)	0.125 (≈ 0.281 µM)	8 (≈ 18 µM)
N#C[C@]1(c2ccc(-c3c(F)cc(N4C[C@H](Cn5ccnn5)OC4=O)cc3F)cn2)[C@@H]2CNC[C@@H]21	0.125 (≈ 0.27 µM)	0.125 (≈ 0.27 µM)	0.125 (≈ 0.27 µM)	0.25 (≈ 0.539 µM)	0.125 (≈ 0.27 µM)	4 (≈ 8.63 µM)
N#C[C@]1(c2ccc(-c3ccc(N4C[C@H](Cn5ccnn5)OC4=O)cc3F)cc2)[C@@H]2CNC[C@@H]21	0.06 (≈ 0.135 µM)	0.125 (≈ 0.281 µM)	0.06 (≈ 0.135 µM)	0.25 (≈ 0.562 µM)	0.125 (≈ 0.281 µM)	4 (≈ 9 µM)
N#C[C@]1(c2ccc(-c3ccc(N4C[C@H](Cn5ccnn5)OC4=O)cc3F)cn2)[C@@H]2COC[C@@H]21	0.06 (≈ 0.134 µM)	0.06 (≈ 0.134 µM)	0.06 (≈ 0.134 µM)	0.25 (≈ 0.56 µM)	0.06 (≈ 0.134 µM)	2 (≈ 4.48 µM)
N#C[C@]1(c2ccc(-c3ccc(N4C[C@H](Cn5ccnn5)OC4=O)cc3)cn2)[C@@H]2CS(=O)(=O)C[C@@H]21	0.06 (≈ 0.126 µM)	0.06 (≈ 0.126 µM)	0.06 (≈ 0.126 µM)	0.125 (≈ 0.262 µM)	0.06 (≈ 0.126 µM)	4 (≈ 8.39 µM)
CC(=O)NC[C@H]1CN(c2ccc(N3CCOCC3)c(F)c2)C(=O)O1 [LINEZOLID]	1 (≈ 2.96 µM)	1 (≈ 2.96 µM)		2 (≈ 5.93 µM)		16 (≈ 47.4 µM)
